# Several values for one entry are separate records, joined by “and”; a condition that tells them apart may be missing. Equal values may be shown once.
# Tests used:
# C57BL/6 mice, CLP sepsis [1] = assay: Serum lactate dehydrogenase (LDH), CLP mice; format: in vivo, mouse; design: serum LDH (Figure 6C): unit not given here; details: 20 h; for serum LDH (Figure 6C): 10 mg/kg NDI, individual mice
# Experimental: (§1) Sepsis was induced in mice by cecal ligation and puncture (CLP) as described previously ([45], [46]). Mice were anesthetized with isoflurane to a surgical plane and placed in a supine position. CLP was performed through a midline laparotomy. The abdomen was shaved and disinfected. Through a 2 cm midline incision, the cecum was exposed and then ligated with a 4-0 silk suture 1 cm proximal from the distal cecal extremity. […] A small amount of cecal content was extruded through both holes, and the ligated cecum was returned to the peritoneal cavity. The wound was closed in layers. […] A small amount of cecal content was extruded. […] Vehicle groups received an equivalent volume of PBS, while treatment groups received NDI 10 mg/kg in […] PBS via retro-orbital injection after CLP. This dose was chosen primarily on the basis of our laboratory’s prior experience, we have consistently used this dose in mouse CLP models with reproducible efficacy and without observable toxicity ([39], [44]). Sham-operated animals underwent a laparotomy without CLP. After closure, the mice received a subcutaneous injection of 0.5 mL of normal saline to overcome surgery-induced dehydration. […] All mice were subcutaneously injected with a single dose of 0.1 mg/kg buprenorphine after CLP. Serum levels of alanine aminotransferase, aspartate aminotransferase, and lactate dehydrogenase were determined using specific colorimetric enzymatic assays (Pointe Scientific Inc.) according to the manufacturer’s instructions.
# c-GSDMD = assay: c/t GSDMD (pyroptosis) in PVECs cocultured with neutrophils, Western blot; format: cell-based, mouse; details: for c/t GSDMD (Figure 4G): 10 μM peptide, 16 h, individual replicates
# Experimental: Wild-type PVECs (5 × 10^5) were cocultured with sorted DLL4^+ neutrophils (5 × 10^5) or DLL4^– neutrophils (5 × 10^5) and then treated with different dosages of peptides or 10 μM DAPT (Thermo Fisher Scientific), 10 μM NDI (GenScript), or 10 μM NDI scramble (GenScript). Notch1-knockdown PVECs (5 × 10^5) were cocultured with sorted DLL4^+ neutrophils (5 × 10^5). After 16 hours, neutrophils were washed away by PBS, and PVECs were collected for further experiments. Cell viability was evaluated by propidium iodide staining using the FITC Annexin V Apoptosis Detection Kit I (catalog 556547, BD Pharmingen). Cell death was quantified as the percentage of propidium iodide–positive cells by flow cytometry.
# PVECs and lung tissue were collected in previous steps. Whole-cell proteins were extracted, and the protein concentration was measured using an ABC protein assay kit (catalog 5000002, Bio-Rad). Proteins were separated using NuPAGE 4%–12% Bis-Tris gels (Invitrogen), transferred to PVDF membranes, and immunoblotted with the antibodies indicated in the figure legends according to the manufacturer’s recommendations. The ZBP1 antibody (catalog PA5-20455; 1:1,000) used in this study was obtained from Thermo Fisher Scientific, and the c-GSDMD (catalog 10137S; 1:250), GSDMD (catalog 39754S; 1:1000), c-caspase-3 (catalog 9661L; 1:250), caspase-3 (catalog 9662S; 1:1,000), p-MLKL (catalog 37333S; 1:250), MLKL (catalog 37705S; 1:1,000), N1ICD (c-Notch1) (catalog 4147S; 1:250), and Notch1 (catalog 3608S; 1:1,000) antibodies were obtained from Cell Signaling Technology. GAPDH (catalog 60004-1-Ig; 1:10,000) and β-actin (catalog A5441, Sigma-Aldrich; 1:5,000) were obtained from ProteinTech. After the blots were incubated with primary antibodies, the membranes were washed 3 times, and the blots were subsequently incubated with the corresponding fluorescent secondary antibody (LI-COR). Bands were detected using an Odyssey FC Dual-Mode Imaging system 2800 (LI-COR).
# C57BL/6 mice, CLP sepsis [2] = assay: Evans blue dye lung extravasation, CLP mice; format: in vivo, mouse; details: 20 h; for Evans blue dye, EBD/dry lung tissue (Figure 6L): 10 mg/kg NDI, EBD 20 mg/kg, individual mice
# Experimental: as §1, with “Lung vascular leakage was quantified using the Evans blue dye–labeled (EBD-labeled) albumin extravasation assay ([48]). […] Sigma-Aldrich) via retro-orbital injection. […] The whole lung was dehydrated for 48 hours at 60°C, immersed in formamide (1 mL/g wet weight; Sigma-Aldrich) at 37°C for 48 hours, and centrifuged at 5,000g for 30 minutes. The amount” for “Serum levels”, “extracted EBD in” for “alanine aminotransferase, aspartate aminotransferase, and lactate dehydrogenase were determined using specific colorimetric enzymatic assays (Pointe Scientific Inc.) according to”, “supernatant was quantified by spectrophotometry. The concentration of extravasated EBD-albumin in lung homogenates was expressed as nanograms EBD per milligram of dry lung tissue. Lung water content was calculated as (wet weight – dry weight)/wet weight %.” for “manufacturer’s instructions.”
# [3] = DLL4^+ neutrophil-injected CLP mice, 10 mg/kg
sequence,measurement,setting,value
ECAGSPCHNGGTCEDGI [NDI],effect on serum LDH,"C57BL/6 mice, CLP sepsis [1]; [3]",significantly reduced the serum levels of hepatic and cell injury markers and proinflammatory cytokines
same,serum LDH (Figure 6C),"C57BL/6 mice, CLP sepsis [1]; DLL4^+ neutrophils + CLP",147.333 and 112.563 and 68.952 and 111.973 and 140.948 and 125.756 and 107.496 and 149.824 and 137.164 and 20.8187 and 17.4427 and 47.264 and 66.5947 and 58.344 and 58.9333 and 52.4507 and 35.9493
same,serum LDH (Figure 6C),"C57BL/6 mice, CLP sepsis [1]; DLL4^– neutrophils + CLP",149.691 and 73.0773 and 124.349 and 178.568 and 24.752 and 44.7893 and 34.7707 and 33.0027 and 50.0933
same,effect on c-GSDMD,"c-GSDMD; 10 μM NDI, DLL4^+ neutrophil coculture",significantly reduced these markers of PANoptosis
same,c/t GSDMD (Figure 4G),c-GSDMD; DLL4^+ neutrophil coculture,1.2879 and 0.9868 and 1.126 and 1.624 and 1.978 and 2.103 and 0.1622 and 0.328 and 1.184
same,c/t GSDMD (Figure 4G),c-GSDMD; DLL4^– neutrophil coculture,0.692 and 1.126 and 1.001 and 1.013 and 0.9854 and 1.021
same,effect on Evans blue dye content,"C57BL/6 mice, CLP sepsis [2]; [3]","significantly attenuated these effects, reducing both lung water content and Evans blue dye content"
same,"Evans blue dye, EBD/dry lung tissue (Figure 6L)","C57BL/6 mice, CLP sepsis [2]; DLL4^+ neutrophils + CLP",94.3739 nanograms EBD per milligram of dry lung tissue and 81.6499 nanograms EBD per milligram of dry lung tissue and 102.841 nanograms EBD per milligram of dry lung tissue and 95.8364 nanograms EBD per milligram of dry lung tissue and 67.7799 nanograms EBD per milligram of dry lung tissue and 56.8397 nanograms EBD per milligram of dry lung tissue and 66.2061 nanograms EBD per milligram of dry lung tissue and 49.7845 nanograms EBD per milligram of dry lung tissue and 71.2396 nanograms EBD per milligram of dry lung tissue
same,"Evans blue dye, EBD/dry lung tissue (Figure 6L)","C57BL/6 mice, CLP sepsis [2]; DLL4^– neutrophils + CLP",62.3234 nanograms EBD per milligram of dry lung tissue and 74.8524 nanograms EBD per milligram of dry lung tissue and 79.6398 nanograms EBD per milligram of dry lung tissue and 73.406 nanograms EBD per milligram of dry lung tissue and 63.9328 nanograms EBD per milligram of dry lung tissue and 50.0167 nanograms EBD per milligram of dry lung tissue and 66.1099 nanograms EBD per milligram of dry lung tissue and 61.0318 nanograms EBD per milligram of dry lung tissue and 57.5122 nanograms EBD per milligram of dry lung tissue

# Reference: paper PMC12700550, “DLL4^+ neutrophils promote Notch1-mediated endothelial PANoptosis to exacerbate acute lung injury in sepsis” (The Journal of Clinical Investigation, 2025)
